Patent publication US5144059A, “Catecholamine esters” (priority 1989, dated 1992)
Several values for one entry are separate records, joined by “and”; a condition that tells them apart may be missing. Identical values can stand only once.

Experiments:
[1] = test system: Intraocular pressure in rabbit; assay: Intraocular pressure in rabbit after topical application; type: in vivo; conditions: 0.1% solution topical; for Intraocular pressure: individual animal, Hydrochloride; for Intraocular pressure, mean: N=6
[2] = test system: Ocular Hypertension in Man; assay: Ocular pressure in patients with non-severe ocular hypertension after instillation; type: in vivo; conditions: one drop 0.1% solution; for Ocular pressure: individual patient, Hydrochloride; for Ocular pressure, mean: N=4
Experimental: 1 drop of a 0.1% solution of 2B223 or 2B852, respectively, was instilled into each eye of 8 patients (males) suffering from non-severe ocular hypertension. Ocular pressure was tested at time 0, and 30, 120, 180 minutes after the ocular instillation. At same times blood pressure and heart rate were also tested.

[3] = Permeability across excised pig cornea (perfusion method, HPLC); type: in vitro ADME; conditions: for Amount of unchanged product in the receiving compartment (permeability rate): 2.5 mM in donor, GBR pH 7.65, 34-35 °C; for Release of epinephrine inside the eye: conclusion from the excised cornea experiment; for Amount of epinephrine released by 2B223 in the receiving compartment: released by 2B223 (2450 nMoles in donor); for Amount of epinephrine released by 2B852 in the receiving compartment: released by 2B852 (2770 nMoles in donor)
Experimental: Perfusion method: pig corneas have been removed with about 2 mm of sclera and set on a perfusion cell.
The receiving compartment and that of the donor were respectively filled with 6 ml and 1 ml of GBR solution (Glutathione Bicarbonate Ringer's solution) preheated at 35° C.
During the analysis the cells were maintained at a temperature of 34°-35° C. with a thermostat (REACTI-THERM, Pierce). Besides, the solutions in the 2 compartments were maintained under a flow of 95% O2 --5% CO2 mixture.
The GBR solution in the donor compartment was then substituted with 1 ml of GBR solution saturated with O2 --CO2 containing, 2B223 or 2B852 (2.5 mM).
Aliquots of 600 μl were withdrawn from the receiving compartment every 40 minutes for a period of 4 hours and immediately replaced with an equal volume of GBR.
A solution of GBR with diclofenac (0.1%) maintained at the same conditions (temperature 34°-35° C. and gassed with (O2 --CO2) acted as control aliquots from the control were withdrawn at the same times.
The samples and the controls at various times were immediately analyzed by HPLC.
Solutions: Glutathione Bicarbonate Ringer's (GBR), pH 7.65. The GBR solution was prepared in two parts: part I was composed of sodium chloride 12.4 g/l, potassium chloride 0.716 g/l, sodium dihydrogen phosphate monohydrate 0.206 g/l and sodium bicarbonate 4.908 g/l while part II was composed of calcium chloride 0.230 g/l, magnesium chloride 0.318 g/l, glucose 1.8 g/l and oxidized glutathioine 0.184 g/l. Both parts were stored cold and utilized within two weeks.
Equal volumes of part I and II were mixed prior to use.

[4] = applied topically to the eye; stated as known; cited from earlier work

With `CNCC(O)c1ccc(OC(=O)N(C)C)c(OC(=O)C(C)C)c1.Cl` (centres unmarked) [2B852, 3-O-Isobutyryl-4-O-(N,N-Dimethylcarbamoyl)adrenaline Hydrochloride] as the compound, how does the Intraocular pressure ([1]; 1 hour) read?
The Intraocular pressure was 12 mm Hg and 13 mm Hg and 11 mm Hg.

What about the Intraocular pressure ([1]; 2 hours) of the same compound?
Its Intraocular pressure is 13 mm Hg and 14 mm Hg.

What about the Intraocular pressure ([1]; 4 hours) of the same compound?
Its Intraocular pressure is 14 mm Hg and 15 mm Hg.

And the Intraocular pressure ([1]; 8 hours)?
Its Intraocular pressure is 16 mm Hg and 15 mm Hg and 14 mm Hg.

What about the Intraocular pressure ([1]; time 0 (baseline)) of the same compound?
Its Intraocular pressure is 15 mm Hg and 16 mm Hg.

What about the “Intraocular pressure, mean” value ([1]; 1 hour) of the same compound?
Its value is 11.8 mm Hg.

And the “Intraocular pressure, mean” value ([1]; 2 hours)?
The value was 13.5 mm Hg.

What about the “Intraocular pressure, mean” value ([1]; 4 hours) of the same compound?
Its value is 14.3 mm Hg.

And the “Intraocular pressure, mean” value ([1]; 8 hours)?
The value was 15.3 mm Hg.

What about the “Intraocular pressure, mean” value ([1]; time 0 (baseline)) of the same compound?
The value was 15.7 mm Hg.

And the Ocular pressure ([2]; left eye, 0 min (baseline))?
Its Ocular pressure is 27 mmHg and 26 mmHg.

What about the Ocular pressure ([2]; left eye, 30 min) of the same compound?
The Ocular pressure was 26 mmHg and 24 mmHg and 25 mmHg.

What about the Ocular pressure ([2]; left eye, 120 min) of the same compound?
Its Ocular pressure is 24 mmHg and 22 mmHg and 25 mmHg.

What about the Ocular pressure ([2]; left eye, 180 min) of the same compound?
The Ocular pressure was 23 mmHg and 25 mmHg.

And the Ocular pressure ([2]; right eye, 0 min (baseline))?
Its Ocular pressure is 26 mmHg and 25 mmHg and 24 mmHg and 28 mmHg.

What about the Ocular pressure ([2]; right eye, 30 min) of the same compound?
The Ocular pressure was 25 mmHg and 24 mmHg and 23 mmHg and 26 mmHg.

And the Ocular pressure ([2]; right eye, 120 min)?
The Ocular pressure was 23 mmHg and 22 mmHg and 24 mmHg.

And the Ocular pressure ([2]; right eye, 180 min)?
The Ocular pressure was 25 mmHg and 22 mmHg and 23 mmHg and 24 mmHg.

And the “Ocular pressure, mean” value ([2]; left eye, 0 min (baseline))?
Its value is 26.5 mmHg.

What about the “Ocular pressure, mean” value ([2]; left eye, 30 min) of the same compound?
Its value is 25.3 mmHg.

And the “Ocular pressure, mean” value ([2]; left eye, 120 min)?
The value was 23.8 mmHg.

What about the “Ocular pressure, mean” value ([2]; left eye, 180 min) of the same compound?
Its value is 23.8 mmHg.

What about the “Ocular pressure, mean” value ([2]; right eye, 0 min (baseline)) of the same compound?
The value was 25.8 mmHg.

What about the “Ocular pressure, mean” value ([2]; right eye, 30 min) of the same compound?
Its value is 24.0 mmHg.

And the “Ocular pressure, mean” value ([2]; right eye, 120 min)?
The value was 23.0 mmHg.

What about the “Ocular pressure, mean” value ([2]; right eye, 180 min) of the same compound?
The value was 23.5 mmHg.

And the “Amount of unchanged product in the receiving compartment (permeability rate)” value (“Amount of unchanged product” for short) ([3]; 40 min)?
Its value is 0.0 nmol.

And the “Amount of unchanged product” value ([3]; 80 min)?
Its value is 0.0 nmol.

And the “Amount of unchanged product” value ([3]; 120 min)?
The value was 0.0 nmol.

What about the “Amount of unchanged product” value ([3]; 160 min) of the same compound?
The value was 0.0 nmol.

And the “Release of epinephrine inside the eye” value [3]?
Its value is “epinephrine is released inside the eye”.

With `CNC[C@H](O)c1ccc(O)c(O)c1` [EPINEPHRINE, epinephrine, reference compound] as the compound, how does the “Permeation of cornea barrier” value [4] read?
The value was “does not permeate cornea barrier”.

And the “Amount of epinephrine released by 2B223 in the receiving compartment” value (“Amount of epinephrine released by 2B223” below) ([3]; 40 min)?
Its value is 15.8 nmol.

And the “Amount of epinephrine released by 2B223” value ([3]; 80 min)?
The value was 21.7 nmol.

And the “Amount of epinephrine released by 2B223” value ([3]; 120 min)?
Its value is 23.4 nmol.

What about the “Amount of epinephrine released by 2B223” value ([3]; 160 min) of the same compound?
Its value is 26.2 nmol.

And the “Amount of epinephrine released by 2B852 in the receiving compartment” value (shortened to “Amount of epinephrine released by 2B852”) ([3]; 40 min)?
The value was 14.5 nmol.

What about the “Amount of epinephrine released by 2B852” value ([3]; 80 min) of the same compound?
Its value is 23.7 nmol.

What about the “Amount of epinephrine released by 2B852” value ([3]; 120 min) of the same compound?
Its value is 28.9 nmol.

And the “Amount of epinephrine released by 2B852” value ([3]; 160 min)?
The value was 32.0 nmol.

Which Intraocular pressure ([1]; 1 hour) does the source give for `CNCC(O)c1ccc(OC(=O)N(C)C)c(OC(=O)c2ccc(C)cc2)c1.Cl` (centres unmarked) [2B223, 3-O-(4-Methylbenzoyl)-4-O-(N,N-Dimethylcarbamoyl)adrenaline Hydrochloride] here?
The Intraocular pressure was 12 mm Hg and 13 mm Hg and 11 mm Hg.

What about the Intraocular pressure ([1]; 2 hours) of the same compound?
Its Intraocular pressure is 13 mm Hg and 14 mm Hg.

What about the Intraocular pressure ([1]; 4 hours) of the same compound?
The Intraocular pressure was 14 mm Hg and 15 mm Hg and 13 mm Hg.

What about the Intraocular pressure ([1]; 8 hours) of the same compound?
The Intraocular pressure was 15 mm Hg and 16 mm Hg and 14 mm Hg.

And the Intraocular pressure ([1]; time 0 (baseline))?
The Intraocular pressure was 16 mm Hg and 15 mm Hg and 17 mm Hg.

And the “Intraocular pressure, mean” value ([1]; 1 hour)?
Its value is 12.2 mm Hg.

What about the “Intraocular pressure, mean” value ([1]; 2 hours) of the same compound?
Its value is 13.3 mm Hg.

And the “Intraocular pressure, mean” value ([1]; 4 hours)?
The value was 14.2 mm Hg.

And the “Intraocular pressure, mean” value ([1]; 8 hours)?
Its value is 15.2 mm Hg.

What about the “Intraocular pressure, mean” value ([1]; time 0 (baseline)) of the same compound?
Its value is 16.0 mm Hg.

What about the Ocular pressure ([2]; left eye, 0 min (baseline)) of the same compound?
Its Ocular pressure is 26 mmHg and 25 mmHg.

What about the Ocular pressure ([2]; left eye, 30 min) of the same compound?
The Ocular pressure was 25 mmHg and 23 mmHg.

What about the Ocular pressure ([2]; left eye, 120 min) of the same compound?
Its Ocular pressure is 20 mmHg and 22 mmHg.

And the Ocular pressure ([2]; left eye, 180 min)?
Its Ocular pressure is 22 mmHg and 24 mmHg and 25 mmHg.

And the Ocular pressure ([2]; right eye, 0 min (baseline))?
Its Ocular pressure is 27 mmHg and 24 mmHg and 23 mmHg.

And the Ocular pressure ([2]; right eye, 30 min)?
The Ocular pressure was 24 mmHg and 23 mmHg and 25 mmHg.

What about the Ocular pressure ([2]; right eye, 120 min) of the same compound?
Its Ocular pressure is 22 mmHg and 21 mmHg and 23 mmHg.

And the Ocular pressure ([2]; right eye, 180 min)?
The Ocular pressure was 23 mmHg and 22 mmHg and 24 mmHg.

And the “Ocular pressure, mean” value ([2]; left eye, 0 min (baseline))?
Its value is 25.8 mmHg.

What about the “Ocular pressure, mean” value ([2]; left eye, 30 min) of the same compound?
The value was 24.5 mmHg.

What about the “Ocular pressure, mean” value ([2]; left eye, 120 min) of the same compound?
The value was 21.5 mmHg.

What about the “Ocular pressure, mean” value ([2]; left eye, 180 min) of the same compound?
The value was 23.8 mmHg.

And the “Ocular pressure, mean” value ([2]; right eye, 0 min (baseline))?
Its value is 25.3 mmHg.

And the “Ocular pressure, mean” value ([2]; right eye, 30 min)?
The value was 24.0 mmHg.

And the “Ocular pressure, mean” value ([2]; right eye, 120 min)?
The value was 22.3 mmHg.

What about the “Ocular pressure, mean” value ([2]; right eye, 180 min) of the same compound?
Its value is 23.3 mmHg.

What about the “Amount of unchanged product” value ([3]; 40 min) of the same compound?
Its value is 0.0 nmol.

And the “Amount of unchanged product” value ([3]; 80 min)?
The value was 1.3 nmol.

What about the “Amount of unchanged product” value ([3]; 120 min) of the same compound?
The value was 4.1 nmol.

And the “Amount of unchanged product” value ([3]; 160 min)?
The value was 23.5 nmol.

And the “Release of epinephrine inside the eye” value [3]?
The value was “epinephrine is released inside the eye”.
